Results taken from ChEMBL document CHEMBL5500396, “Discovery, Multiparametric Optimization, and Solid-State Driven Identification of CHF-6550, a Novel Soft Dual Pharmacology Muscarinic Antagonist and β2 Agonist (MABA) for the Inhaled Treatment of Respiratory Diseases” (J Med Chem, 2024).

Key:
Cavia porcellus [1] = organism: Cavia porcellus; assay: animal or person; conditions: albino Dunkin-Hartley, 1 h, read-out: INH
Description: Inhibition of acetylcholine induced bronchoconstriction in male albino Dunkin-Hartley guinea pig model at 1 nmol/kg, IT(Intratracheal) preadministered with compound followed by acetylcholine addition at 5 to 30 mins in presence of ICI-118551 and measured 1 hrs post compound treatment relative to control

Cavia porcellus [2] = organism: Cavia porcellus; assay: animal or person; conditions: albino Dunkin-Hartley, 24 h, read-out: INH
Description: Inhibition of acetylcholine induced bronchoconstriction in male albino Dunkin-Hartley guinea pig model at 1 nmol/kg, IT(Intratracheal) preadministered with compound followed by acetylcholine addition at 5 to 30 mins in presence of ICI-118551 and measured 24 hrs post compound treatment relative to control

Cavia porcellus [3] = assay: Inhibition of histamine induced bronchoconstriction in male albino Dunkin-Hartley guinea pig model at 1 nmol/kg, IT(Intratracheal) preadministered with compound followed by histamine addition at 5 to 30 mins and measured 1 hrs post compound treatment relative to control; conditions: read-out: INH
Cavia porcellus [4] = assay: Inhibition of histamine induced bronchoconstriction in male albino Dunkin-Hartley guinea pig model at 1 nmol/kg, IT(Intratracheal) preadministered with compound followed by histamine addition at 5 to 30 mins and measured 24 hrs post compound treatment relative to control; conditions: read-out: INH
Cavia porcellus [5] = assay: Inhibition of acetylcholine induced bronchoconstriction in male albino Dunkin-Hartley guinea pig model at 1 nmol/kg, IT(Intratracheal) preadministered with compound followed by acetylcholine addition at 5 to 30 mins and measured 1 hrs post compound treatment relative to control; conditions: read-out: INH
Cavia porcellus [6] = assay: Inhibition of acetylcholine induced bronchoconstriction in male albino Dunkin-Hartley guinea pig model at 1 nmol/kg, IT(Intratracheal) preadministered with compound followed by acetylcholine addition at 5 to 30 mins and measured 24 hrs post compound treatment relative to control; conditions: read-out: INH
[7] = Stability in guinea pig lung S9 fraction at 1 uM incubated for 60 mins by LC-MS/MS analysis
[8] = biological target: Muscarinic acetylcholine receptor M3 (Homo sapiens, UniProt P20309)
Description: Displacement of Scopolamine methyl chloride,[N-methyl-3H] from human muscarinic M3 receptor assessed as inhibition constant incubated for 2 hrs by Microbeta scintillation counter

[9] = biological target: Beta-2 adrenergic receptor (Cavia porcellus, UniProt Q8K4Z4); assay: Agonist activity at beta2 adrenoceptor in male albino Dunkin-Hartley guinea pig trachea assessed as inhibition of histamine induced smooth muscle contraction
[10] = biological target: Beta-2 adrenergic receptor (Homo sapiens, UniProt P07550)
Description: Displacement of [125I]-Cyanopindolol from human beta2 adrenoceptor assessed as inhibition constant incubated for 1 hrs by Microbeta scintillation counter

Trachea = assay: Inhibition of carbachol-induced smooth muscle contraction in male albino Dunkin-Hartley guinea pig trachea; conditions: Cavia porcellus, read-out: pIC50 (converted)
[11] = biological target: Muscarinic acetylcholine receptor M3 (Cavia porcellus, UniProt Q8VH26); assay: Antagonist activity at M3 receptor in male albino Dunkin-Hartley guinea pig trachea assessed as inhibition of carbachol-induced smooth muscle contraction in presence of propranolol
in vitro [12] = conditions: human, hepatocytes
Description: Metabolic stability in human hepatocytes assessed as clearance measured per 10^6 cells at 1 uM incubated for 90 mins by LC-MS/MS analysis

in vitro [13] = conditions: rat, hepatocytes
Description: Metabolic stability in rat hepatocytes assessed as clearance measured per 10^6 cells at 1 uM incubated for 90 mins by LC-MS/MS analysis

Cavia porcellus [14] = assay: Inhibition of acetylcholine induced bronchoconstriction in male albino Dunkin-Hartley guinea pig model at 0.3 nmol/kg, IT(Intratracheal) preadministered with compound followed by acetylcholine addition at 5 to 30 mins and measured 16 hrs post compound treatment relative to control; conditions: read-out: INH
in vitro [15] = conditions: guinea pig, lung S9 fraction
Description: Stability in guinea pig lung S9 fraction assessed as half-life at 1 uM incubated for 60 mins by LC-MS/MS analysis

Cavia porcellus [16] = organism: Cavia porcellus; assay: animal or person; conditions: albino Dunkin-Hartley, 1 h, read-out: INH; remark: listed apart in the source
Description: Inhibition of acetylcholine induced bronchoconstriction in male albino Dunkin-Hartley guinea pig model at 0.3 nmol/kg, IT(Intratracheal) preadministered with compound followed by acetylcholine addition at 5 to 30 mins in presence of ICI-118551 and measured 1 hrs post compound treatment relative to control

in vitro [17] = conditions: guinea pig, plasma
Description: Stability in guinea pig plasma assessed as half-life at 5 uM incubated for 120 mins by LC-MS/MS analysis

in vitro [18] = conditions: guinea pig, hepatocytes
Description: Metabolic stability in guinea pig hepatocytes assessed as clearance measured per 10^6 cells at 1 uM incubated for 90 mins by LC-MS/MS analysis

in vitro [19] = conditions: rat, lung S9 fraction
Description: Stability in rat lung S9 fraction assessed as half-life at 1 uM incubated for 60 mins by LC-MS/MS analysis

Cavia porcellus [20] = assay: Inhibition of acetylcholine induced bronchoconstriction in male albino Dunkin-Hartley guinea pig model at 0.3 nmol/kg, IT(Intratracheal) preadministered with compound followed by acetylcholine addition at 5 to 30 mins and measured 1 hrs post compound treatment relative to control; conditions: read-out: INH
in vitro [21] = conditions: human, lung S9 fraction
Description: Stability in human lung S9 fraction assessed as half-life at 1 uM incubated for 60 mins by LC-MS/MS analysis

Cavia porcellus [22] = assay: Inhibition of histamine induced bronchoconstriction in male albino Dunkin-Hartley guinea pig model at 0.3 nmol/kg, IT(Intratracheal) preadministered with compound followed by histamine addition at 5 to 30 mins and measured 16 hrs post compound treatment relative to control; conditions: read-out: INH
in vitro [23] = conditions: rat, plasma
Description: Stability in rat plasma assessed as half-life at 5 uM incubated for 120 mins by LC-MS/MS analysis

Cavia porcellus [24] = organism: Cavia porcellus; assay: animal or person; conditions: albino Dunkin-Hartley, 16 h, read-out: INH
Description: Inhibition of acetylcholine induced bronchoconstriction in male albino Dunkin-Hartley guinea pig model at 0.3 nmol/kg, IT(Intratracheal) preadministered with compound followed by acetylcholine addition at 5 to 30 mins in presence of ICI-118551 and measured 16 hrs post compound treatment relative to control

in vitro [25] = conditions: human, plasma
Description: Stability in human plasma assessed as half-life at 5 uM incubated for 120 mins by LC-MS/MS analysis

Cavia porcellus [26] = assay: Inhibition of histamine induced bronchoconstriction in male albino Dunkin-Hartley guinea pig model at 0.3 nmol/kg, IT(Intratracheal) preadministered with compound followed by histamine addition at 5 to 30 mins and measured 1 hrs post compound treatment relative to control; conditions: read-out: INH
[27] = biological target: Sodium channel protein type 5 subunit alpha (Homo sapiens, UniProt Q14524)
Description: Inhibition of human Nav1.5

[28] = biological target: Voltage-gated inwardly rectifying potassium channel KCNH2 (Homo sapiens, UniProt Q12809)
Description: Inhibition of human ERG by patch clamp assay

[29] = biological target: Voltage-dependent L-type calcium channel subunit alpha-1C (Homo sapiens, UniProt Q13936)
Description: Inhibition of human Cav1.2

Cavia porcellus [30] = organism: Cavia porcellus; assay: animal or person; conditions: albino Dunkin-Hartley, 1 h, read-out: INH; remark: listed apart in the source
Description: Inhibition of acetylcholine induced bronchoconstriction in male albino Dunkin-Hartley guinea pig model at 3 nmol/kg, IT(Intratracheal) preadministered with compound followed by acetylcholine addition at 5 to 30 mins in presence of ICI-118551 and measured 1 hrs post compound treatment relative to control

Cavia porcellus [31] = assay: Inhibition of acetylcholine induced bronchoconstriction in male albino Dunkin-Hartley guinea pig model at 3 nmol/kg, IT(Intratracheal) preadministered with compound followed by acetylcholine addition at 5 to 30 mins and measured 1 hrs post compound treatment relative to control; conditions: read-out: INH
Cavia porcellus [32] = assay: Inhibition of histamine induced bronchoconstriction in male albino Dunkin-Hartley guinea pig model at 3 nmol/kg, IT(Intratracheal) preadministered with compound followed by histamine addition at 5 to 30 mins and measured 1 hrs post compound treatment relative to control; conditions: read-out: INH
[33] = Protein binding in human plasma at 5 uM incubated for 4 hrs by LC-MS/MS analysis

Muscarinic acetylcholine receptor M3 (Cavia porcellus, UniProt Q8VH26), sequence (Q8VH26 whole entry): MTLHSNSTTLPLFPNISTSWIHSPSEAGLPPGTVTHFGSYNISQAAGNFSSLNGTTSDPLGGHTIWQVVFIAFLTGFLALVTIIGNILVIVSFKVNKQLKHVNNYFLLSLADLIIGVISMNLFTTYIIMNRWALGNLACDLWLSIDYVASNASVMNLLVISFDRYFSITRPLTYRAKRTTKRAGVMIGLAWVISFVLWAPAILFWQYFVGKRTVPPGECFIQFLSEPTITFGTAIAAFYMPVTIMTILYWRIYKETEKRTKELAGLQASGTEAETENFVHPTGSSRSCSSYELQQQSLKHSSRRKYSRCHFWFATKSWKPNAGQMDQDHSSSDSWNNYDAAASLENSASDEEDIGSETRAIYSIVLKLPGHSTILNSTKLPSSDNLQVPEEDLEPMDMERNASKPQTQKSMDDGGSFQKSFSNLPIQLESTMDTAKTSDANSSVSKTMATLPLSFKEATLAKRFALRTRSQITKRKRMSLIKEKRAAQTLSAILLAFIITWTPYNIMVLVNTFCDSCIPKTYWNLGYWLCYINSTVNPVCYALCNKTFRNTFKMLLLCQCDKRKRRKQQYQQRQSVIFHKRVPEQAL
Muscarinic acetylcholine receptor M3 (Homo sapiens, UniProt P20309), sequence (P20309 whole entry): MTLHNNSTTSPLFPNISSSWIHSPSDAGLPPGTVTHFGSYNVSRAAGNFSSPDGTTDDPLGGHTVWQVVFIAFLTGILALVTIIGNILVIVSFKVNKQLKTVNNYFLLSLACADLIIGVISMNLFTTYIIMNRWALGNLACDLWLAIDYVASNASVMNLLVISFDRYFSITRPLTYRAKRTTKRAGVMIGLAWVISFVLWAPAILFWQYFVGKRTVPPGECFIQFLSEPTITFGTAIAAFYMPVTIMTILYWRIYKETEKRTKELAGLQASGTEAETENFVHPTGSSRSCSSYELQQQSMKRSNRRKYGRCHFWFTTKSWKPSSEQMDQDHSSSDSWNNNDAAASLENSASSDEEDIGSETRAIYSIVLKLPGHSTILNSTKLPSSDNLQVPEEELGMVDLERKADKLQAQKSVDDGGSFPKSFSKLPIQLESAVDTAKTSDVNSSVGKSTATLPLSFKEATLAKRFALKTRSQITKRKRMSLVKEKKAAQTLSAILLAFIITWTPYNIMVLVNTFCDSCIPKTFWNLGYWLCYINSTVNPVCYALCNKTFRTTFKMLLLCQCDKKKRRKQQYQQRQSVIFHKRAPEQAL
Beta-2 adrenergic receptor (Homo sapiens, UniProt P07550), sequence (P07550 whole entry): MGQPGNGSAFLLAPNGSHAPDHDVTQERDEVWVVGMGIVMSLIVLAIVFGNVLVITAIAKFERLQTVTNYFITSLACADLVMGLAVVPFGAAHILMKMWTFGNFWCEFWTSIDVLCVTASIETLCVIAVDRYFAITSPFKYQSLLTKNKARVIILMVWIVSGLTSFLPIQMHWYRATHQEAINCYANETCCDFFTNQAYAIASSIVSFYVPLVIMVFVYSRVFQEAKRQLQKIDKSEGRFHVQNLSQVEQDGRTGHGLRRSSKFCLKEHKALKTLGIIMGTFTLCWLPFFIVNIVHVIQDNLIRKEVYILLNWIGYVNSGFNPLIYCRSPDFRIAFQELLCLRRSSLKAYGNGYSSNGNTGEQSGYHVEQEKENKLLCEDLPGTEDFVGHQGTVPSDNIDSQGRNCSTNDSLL
Beta-2 adrenergic receptor (Cavia porcellus, UniProt Q8K4Z4), sequence (Q8K4Z4 whole entry): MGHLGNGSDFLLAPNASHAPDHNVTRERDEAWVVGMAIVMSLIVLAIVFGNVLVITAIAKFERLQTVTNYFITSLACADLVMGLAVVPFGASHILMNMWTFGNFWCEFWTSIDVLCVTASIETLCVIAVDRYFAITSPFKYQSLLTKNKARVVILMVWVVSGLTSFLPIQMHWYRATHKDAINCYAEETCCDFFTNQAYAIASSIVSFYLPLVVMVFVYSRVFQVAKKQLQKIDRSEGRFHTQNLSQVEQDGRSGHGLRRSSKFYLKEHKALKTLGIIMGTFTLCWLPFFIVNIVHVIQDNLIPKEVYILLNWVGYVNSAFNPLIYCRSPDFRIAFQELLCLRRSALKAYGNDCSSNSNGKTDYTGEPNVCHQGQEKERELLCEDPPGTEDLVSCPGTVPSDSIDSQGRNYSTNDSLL
Voltage-gated inwardly rectifying potassium channel KCNH2, sequence (Q12809 whole entry): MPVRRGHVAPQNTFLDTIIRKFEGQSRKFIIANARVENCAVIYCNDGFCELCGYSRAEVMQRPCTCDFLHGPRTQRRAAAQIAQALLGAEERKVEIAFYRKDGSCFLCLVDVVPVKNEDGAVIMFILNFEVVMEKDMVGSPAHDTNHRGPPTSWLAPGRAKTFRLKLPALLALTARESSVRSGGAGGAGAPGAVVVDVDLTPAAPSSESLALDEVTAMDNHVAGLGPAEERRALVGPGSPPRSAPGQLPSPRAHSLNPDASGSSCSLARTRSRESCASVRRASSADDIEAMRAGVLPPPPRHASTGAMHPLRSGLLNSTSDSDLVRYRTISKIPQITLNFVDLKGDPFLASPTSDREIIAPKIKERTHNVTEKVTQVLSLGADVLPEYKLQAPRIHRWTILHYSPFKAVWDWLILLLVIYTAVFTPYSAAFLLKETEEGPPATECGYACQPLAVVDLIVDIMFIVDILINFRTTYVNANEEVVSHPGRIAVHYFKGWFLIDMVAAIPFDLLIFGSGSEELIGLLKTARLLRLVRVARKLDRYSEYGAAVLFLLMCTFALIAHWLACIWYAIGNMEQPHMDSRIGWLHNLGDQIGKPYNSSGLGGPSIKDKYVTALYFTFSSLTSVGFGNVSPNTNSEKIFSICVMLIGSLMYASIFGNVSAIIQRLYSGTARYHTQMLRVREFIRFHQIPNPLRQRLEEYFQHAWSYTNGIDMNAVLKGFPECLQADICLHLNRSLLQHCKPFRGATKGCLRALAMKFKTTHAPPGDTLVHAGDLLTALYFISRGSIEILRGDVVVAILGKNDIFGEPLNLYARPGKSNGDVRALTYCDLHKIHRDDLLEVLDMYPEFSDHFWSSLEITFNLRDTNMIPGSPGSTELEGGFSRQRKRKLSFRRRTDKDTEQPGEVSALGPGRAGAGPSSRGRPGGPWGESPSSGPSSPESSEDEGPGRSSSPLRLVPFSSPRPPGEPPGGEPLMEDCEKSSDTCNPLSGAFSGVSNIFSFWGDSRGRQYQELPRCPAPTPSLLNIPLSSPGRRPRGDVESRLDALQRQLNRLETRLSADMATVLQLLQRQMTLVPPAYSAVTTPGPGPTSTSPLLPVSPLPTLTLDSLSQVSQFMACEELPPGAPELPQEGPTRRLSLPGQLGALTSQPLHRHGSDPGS

| Compound | Ki [8] [nM] | IC50 [9] [nM] | Ki [10] [nM] | IC50 (Trachea) [nM] | IC50 [11] [nM] | hepatocyte CLint at 1.5 h, 1 µM (in vitro [12]) [µL/min/1e6 cells] | hepatocyte CLint at 1.5 h, 1 µM (in vitro [13]) [µL/min/1e6 cells] | half-life at 1 h, 1 µM (in vitro [15]) [h] | half-life at 2 h, 5 µM (in vitro [17]) [h] | half-life at 1 h, 1 µM (in vitro [19]) [h] | half-life at 1 h, 1 µM (in vitro [21]) [h] | half-life at 2 h, 5 µM (in vitro [23]) [h] | half-life at 2 h, 5 µM (in vitro [25]) [h] | other results |
| --- | --- | --- | --- | --- | --- | --- | --- | --- | --- | --- | --- | --- | --- | --- |
| Cn1nc(C(=O)OCCCCNC[C@H](O)c2ccc(O)c3[nH]c(=O)ccc23)cc1COc1cccc([C@@H](NC(=O)O[C@H]2CN3CCC2CC3)c2ccccc2)c1 |  |  |  |  |  |  |  |  |  |  |  |  |  | inhibition in vivo at 0.001 µmol/kg (Cavia porcellus [1]): 84%; inhibition in vivo at 0.001 µmol/kg (Cavia porcellus [2]): 45%; inhibition in vivo at 0.001 µmol/kg (Cavia porcellus [3]): 73%; inhibition in vivo at 0.001 µmol/kg (Cavia porcellus [4]): 51%; inhibition in vivo at 0.001 µmol/kg (Cavia porcellus [5]): 93%; inhibition in vivo at 0.001 µmol/kg (Cavia porcellus [6]): 71%; remaining at 1 h, 1 µM [7]: 98.5% |
| O=C(N[C@@H](c1ccccc1)c1cccc(OCc2cccc(C(=O)NCCCCNC[C@H](O)c3ccc(O)c4[nH]c(=O)ccc34)c2)c1)O[C@H]1CN2CCC1CC2 | 0.0631 | 1 | 0.0126 | 0.794 | 0.794 |  |  |  |  |  |  |  |  |  |
| CCN1CCC(COC(=O)[C@](O)(c2ccccc2)c2cccc(OCCCNC(=O)c3cc(OC)c(CNC[C@H](O)c4ccc(O)c5[nH]c(=O)ccc45)cc3F)c2)CC1.O=C(O)C(F)(F)F.O=C(O)C(F)(F)F | 0.0126 | 3.16 | 0.501 | 0.501 | 3.16 | 2 | 27 | 4.67 | > 2.5 | 4.67 | 4.67 | 0.933 | > 2.5 | inhibition in vivo at 0.0003 µmol/kg (Cavia porcellus [14]): 62%; inhibition in vivo at 0.0003 µmol/kg (Cavia porcellus [16]): 61%; hepatocyte CLint at 1.5 h, 1 µM (in vitro [18]): 60 µL/min/1e6 cells; inhibition in vivo at 0.0003 µmol/kg (Cavia porcellus [20]): 78%; inhibition in vivo at 0.0003 µmol/kg (Cavia porcellus [22]): 60%; remaining at 1 h, 1 µM [7]: 96.5%; inhibition in vivo at 0.0003 µmol/kg (Cavia porcellus [24]): 51%; inhibition in vivo at 0.0003 µmol/kg (Cavia porcellus [26]): 85% |
| O=C(NCCCOc1cccc([C@](O)(C(=O)O)c2ccccc2)c1)c1ccc(CNC[C@H](O)c2ccc(O)c3[nH]c(=O)ccc23)cc1 | > 50.1 |  |  |  |  |  |  |  |  |  |  |  |  | IC50 [27]: > 150000 nM; IC50 [28]: > 150000 nM; IC50 [29]: > 150000 nM |
| COc1cc(C(=O)NCCCOc2cccc([C@](O)(C(=O)OCC3CCN(Cc4ccccc4)CC3)c3ccccc3)c2)c(F)cc1CNC[C@H](O)c1ccc(O)c2[nH]c(=O)ccc12 | 0.01 | 0.1 | 0.251 |  | 0.794 | 20 | 33 | 0.433 | 0.133 | 1.85 | 1.92 | 0.917 | > 2.5 |  |
| COc1cc(C(=O)NCCCOc2cccc([C@](O)(C(=O)OCC3CCN(Cc4ccccc4)CC3)c3ccccc3)c2)ccc1CNC[C@H](O)c1ccc(O)c2[nH]c(=O)ccc12 | 0.02 | 0.0126 | 0.398 |  | 0.126 | 20 | 60 | 0.483 | 0.1 | 3.95 | 4 | 0.6 | > 2.5 |  |
| O=C(NCc1ccc(-c2cccc([C@](O)(C(=O)OCC3CCN(Cc4ccccc4)CC3)c3ccccc3)c2)s1)c1ccc(CNC[C@H](O)c2ccc(O)c3[nH]c(=O)ccc23)cc1 | 0.251 |  | 2.51 |  |  | 12 | 50 | 2.1 | 0.217 | 2.1 | 1.47 | > 2.5 | > 2.5 | hepatocyte CLint at 1.5 h, 1 µM (in vitro [18]): 295 µL/min/1e6 cells |
| O=C(c1ccc(CCNC[C@H](O)c2ccc(O)c3[nH]c(=O)ccc23)cc1)N1CCC(c2cccc([C@](O)(C(=O)OCC3CCN(Cc4ccccc4)CC3)c3ccccc3)c2)CC1 | 0.0631 | 0.631 | 0.398 |  | 2 | 13 | 36 | 1.9 | 0.267 | 2.47 | 3 | 0.533 | > 2.5 |  |
| O=C(NCCCCNC[C@H](O)c1ccc(O)c2[nH]c(=O)ccc12)c1ccc(CNC2(C(=O)O[C@H]3CN4CCC3CC4)CCc3ccccc32)cc1 (mixture of isomers) | 0.126 | 2.51 | 0.501 | 1.58 | 3.16 |  |  |  |  |  |  |  |  |  |
| O=C(NCCCCNC[C@H](O)c1ccc(O)c2[nH]c(=O)ccc12)c1ccc(CNC2(C(=O)OCC3CCN(Cc4ccccc4)CC3)CCc3ccccc32)s1 (mixture of isomers; 32) | 3.98 | 0.0251 | 0.0631 | 0.0501 | 1 |  |  |  |  |  |  |  | > 2.5 | hepatocyte CLint at 1.5 h, 1 µM (in vitro [12]; CLH): 13 µL/min/1e6 cells; hepatocyte CLint at 1.5 h, 1 µM (in vitro [13]; CLH): 44 µL/min/1e6 cells; half-life at 1 h, 1 µM (in vitro [19]; t1/2): 2.35 h; half-life at 1 h, 1 µM (in vitro [21]; t1/2): 1.62 h; half-life at 2 h, 5 µM (in vitro [23]; t1/2): 0.5 h |
| O=C(NCCCCNC[C@H](O)c1ccc(O)c2[nH]c(=O)ccc12)c1ccc(CNC2(C(=O)OCC3CCN(Cc4ccccc4)CC3)CCc3ccccc32)s1 (mixture of isomers; 33) | 2 | 0.0631 | 0.0316 |  | 0.794 |  |  |  |  |  |  |  |  | inhibition in vivo at 0.003 µmol/kg (Cavia porcellus [30]): 60%; inhibition in vivo at 0.003 µmol/kg (Cavia porcellus [31]): 96%; inhibition in vivo at 0.003 µmol/kg (Cavia porcellus [32]): 83%; fraction unbound at 4 h, 5 µM [33]: 0.06 |
| O=C(c1ccc(OCc2ccc(CNC[C@H](O)c3ccc(O)c4[nH]c(=O)ccc34)cc2)cc1)N1CC(C(=O)OC2CN3CCC2CC3)(c2ccccc2)C1 (single isomer, unassigned) | 0.316 | 1 | 0.631 | 1 | 1 |  |  |  |  |  |  |  |  |  |
